# Laboratory results: publication PMC6267221, “Renal Cell Carcinoma Is Abrogated by p53 Stabilization through Transglutaminase 2 Inhibition” (Cancers, 2018)
# T1: guinea pig liver TGase 2 (UniProt P08587)
# T1 construct: gene TGM2
# T1 sequence (P08587 2-690): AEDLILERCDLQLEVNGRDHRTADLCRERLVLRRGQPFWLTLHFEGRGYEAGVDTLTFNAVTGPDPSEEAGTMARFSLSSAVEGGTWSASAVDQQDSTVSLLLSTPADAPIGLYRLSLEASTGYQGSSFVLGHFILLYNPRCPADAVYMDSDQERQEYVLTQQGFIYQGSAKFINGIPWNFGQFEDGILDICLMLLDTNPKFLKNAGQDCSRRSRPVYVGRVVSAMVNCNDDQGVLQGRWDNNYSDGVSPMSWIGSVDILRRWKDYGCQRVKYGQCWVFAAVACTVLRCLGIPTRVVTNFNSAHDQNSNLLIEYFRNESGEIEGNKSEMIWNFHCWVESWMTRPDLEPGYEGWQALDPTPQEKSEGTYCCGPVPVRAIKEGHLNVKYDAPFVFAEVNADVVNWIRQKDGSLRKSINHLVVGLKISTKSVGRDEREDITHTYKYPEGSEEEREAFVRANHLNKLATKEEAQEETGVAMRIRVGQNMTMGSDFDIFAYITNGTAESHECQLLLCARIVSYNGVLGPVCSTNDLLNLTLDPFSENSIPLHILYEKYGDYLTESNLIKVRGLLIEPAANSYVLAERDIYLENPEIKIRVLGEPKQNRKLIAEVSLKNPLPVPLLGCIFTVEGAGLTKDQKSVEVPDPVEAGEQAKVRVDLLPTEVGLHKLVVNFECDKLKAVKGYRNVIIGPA
# T2: transglutaminase 2 (TGase 2) (Homo sapiens, UniProt P21980)
# T2 construct: gene TGM2; recombinant human TGase 2, polyhistidine-tagged
# T2 sequence (P21980 2-687): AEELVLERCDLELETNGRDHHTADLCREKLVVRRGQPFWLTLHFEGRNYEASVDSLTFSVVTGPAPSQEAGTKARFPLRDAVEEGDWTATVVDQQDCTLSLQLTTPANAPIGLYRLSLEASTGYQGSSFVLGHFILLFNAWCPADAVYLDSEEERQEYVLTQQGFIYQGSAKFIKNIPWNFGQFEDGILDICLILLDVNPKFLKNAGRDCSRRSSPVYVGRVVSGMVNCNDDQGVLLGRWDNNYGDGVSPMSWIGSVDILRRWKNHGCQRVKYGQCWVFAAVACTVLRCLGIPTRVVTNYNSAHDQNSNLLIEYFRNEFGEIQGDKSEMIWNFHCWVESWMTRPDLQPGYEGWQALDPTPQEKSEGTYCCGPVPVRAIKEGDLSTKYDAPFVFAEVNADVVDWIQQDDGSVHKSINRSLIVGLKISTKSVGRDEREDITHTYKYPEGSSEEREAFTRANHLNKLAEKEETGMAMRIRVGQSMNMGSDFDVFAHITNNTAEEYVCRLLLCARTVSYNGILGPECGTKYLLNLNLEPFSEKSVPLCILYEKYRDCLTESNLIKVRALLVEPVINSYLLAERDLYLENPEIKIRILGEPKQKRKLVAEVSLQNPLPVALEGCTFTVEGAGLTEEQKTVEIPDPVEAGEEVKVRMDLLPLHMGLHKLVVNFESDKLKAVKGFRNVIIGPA
# T3: TGase 2 (as run on native gels), P21980
# T3 chain: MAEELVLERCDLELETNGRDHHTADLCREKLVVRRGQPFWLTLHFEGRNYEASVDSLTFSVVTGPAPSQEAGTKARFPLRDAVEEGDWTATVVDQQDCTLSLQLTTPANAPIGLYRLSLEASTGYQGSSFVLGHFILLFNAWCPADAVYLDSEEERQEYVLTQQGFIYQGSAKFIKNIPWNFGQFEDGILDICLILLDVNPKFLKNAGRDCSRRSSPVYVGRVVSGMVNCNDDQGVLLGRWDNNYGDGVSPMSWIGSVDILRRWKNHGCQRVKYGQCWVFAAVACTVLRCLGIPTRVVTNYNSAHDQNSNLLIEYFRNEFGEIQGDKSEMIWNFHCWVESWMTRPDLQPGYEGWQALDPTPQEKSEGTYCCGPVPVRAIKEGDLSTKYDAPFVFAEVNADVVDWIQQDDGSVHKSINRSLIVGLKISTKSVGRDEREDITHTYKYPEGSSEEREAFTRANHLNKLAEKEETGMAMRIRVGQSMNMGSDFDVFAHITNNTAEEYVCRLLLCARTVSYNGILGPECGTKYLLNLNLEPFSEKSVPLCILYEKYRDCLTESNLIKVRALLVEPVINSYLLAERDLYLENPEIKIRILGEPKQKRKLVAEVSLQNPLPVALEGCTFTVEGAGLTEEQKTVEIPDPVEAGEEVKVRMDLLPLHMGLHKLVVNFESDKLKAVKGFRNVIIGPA
# Columns and labels:
# guinea pig liver TGase 2 = biological target: T1, guinea pig liver TGase 2; experiment: succinylated casein / […]-putrescine incorporation assay; format: biochemical, Cavia cutleri
# [1] = biological target: T2, transglutaminase 2 (TGase 2); experiment: SPR (ProteOn XPR36); MS peptide masking supports the site; format: binding
# [2] = biological target: T3, TGase 2 (as run on native gels), P21980; experiment: native gel or EMSA; TGase 2 incubated with streptonigrin or GTP, 37 °C; native gel, immunoblot of TGase 2; monomer to dimer; conditions: remark: other sources report otherwise
fold increase in the density of the dimer band after streptonigrin treatment [2],stoichiometry N [2],Molecule,IC50 (guinea pig liver TGase 2),Kd [1]
–,–,COC1=C(N)C(=O)c2nc(-c3nc(C(=O)O)c(C)c(-c4ccc(OC)c(OC)c4O)c3N)ccc2C1=O [streptonigrin],1700 nM,~700 nM
2.4 fold,2,"TGase 2 (as run on native gels), P21980 1-687 (enzyme) MAEELVLERCDLELETNGRDHHTADLCREKLVVRRGQPFWLTLHFEGRNYEASVDSLTFSVVTGPAPSQEAGTKARFPLRDAVEEGDWTATVVDQQDCTLSLQLTTPANAPIGLYRLSLEASTGYQGSSFVLGHFILLFNAWCPADAVYLDSEEERQEYVLTQQGFIYQGSAKFIKNIPWNFGQFEDGILDICLILLDVNPKFLKNAGRDCSRRSSPVYVGRVVSGMVNCNDDQGVLLGRWDNNYGDGVSPMSWIGSVDILRRWKNHGCQRVKYGQCWVFAAVACTVLRCLGIPTRVVTNYNSAHDQNSNLLIEYFRNEFGEIQGDKSEMIWNFHCWVESWMTRPDLQPGYEGWQALDPTPQEKSEGTYCCGPVPVRAIKEGDLSTKYDAPFVFAEVNADVVDWIQQDDGSVHKSINRSLIVGLKISTKSVGRDEREDITHTYKYPEGSSEEREAFTRANHLNKLAEKEETGMAMRIRVGQSMNMGSDFDVFAHITNNTAEEYVCRLLLCARTVSYNGILGPECGTKYLLNLNLEPFSEKSVPLCILYEKYRDCLTESNLIKVRALLVEPVINSYLLAERDLYLENPEIKIRILGEPKQKRKLVAEVSLQNPLPVALEGCTFTVEGAGLTEEQKTVEIPDPVEAGEEVKVRMDLLPLHMGLHKLVVNFESDKLKAVKGFRNVIIGPA",–,–
